The source of these data is patent US20250205240A1, “COMBINATIONS” (Recurium IP Holdings, LLC, priority 2022, published 2025).

Experiment [1] concerns HT-29 cell line. Put plainly: In vitro tumor cell proliferation assay (3D spheroid, 3D CTG), HT-29. The class given is cell-based. The following applies: Homo sapiens. The protocol:
(§1) Cell suspensions containing 1.5×10^3 total cells in 100 μL culture media were deposited in each well of an ultra-low attachment 96 well plate. Plates were incubated at 37° C. with […] and 5% CO2 for 72 h to allow for spheroid formation. […] ZN-c3 and/or Encorafenib compounds in DMSO were deposited into the plates using an automated drug dispenser at the indicated concentrations. Total DMSO content was normalized to 0.1% of the total volume in all assay conditions. Plates were sealed with breathable film to reduce evaporation and incubated at 37° C. with […] and 5% CO2 for 192 h. After 192 h, plates were removed from the incubator and allowed to come to room temperature. 100 μL room temperature 3D CTG reagent (Promega, Cat #G9683) was added to each well. Plates were agitated at 520 revolutions per minute (rpm) for 5 mins, allowed to stabilize protected from light for 30 mins, then luminescence was measured on an M5e plate reader (SpectraMax). Percent viability was calculated as percentage of cell viability relative to DMSO-only vehicle control.

Experiment [2] deals with LS411N cell line. Kind of experiment: In vitro tumor cell proliferation assay (3D spheroid, 3D CTG), LS411N. The class given is cell-based. The following applies: Homo sapiens, LS-411N, 192 h. Here is the method:
as §1

Experiment [3] deals with HT-29 CDX model (BRAFmt CRC). The class given is in vivo, BALB/c nude mice. The following applies: ZN-c3 60 mg/kg QD p.o., encorafenib 15 mg/kg QD p.o., cetuximab 15 mg/kg BIW i.p.; for TGI: 21- or 22-day study. Here is the method:
(§2) CDX Models: 6-8 week old BALB/c nude mice were inoculated subcutaneously on the right flank with the single cell suspension of 95% viable tumor cells (5×10^6) in 100 μL RPMI 1640 without serum (COLO205), 95% viable tumor cells (2×10^6) in 100 μL McCoy's 5a Medium Modified without serum (HT-29), or 95% viable tumor cells (2×106) in 100 μL RPMI 1640 and Matrigel mixture (1:1 ratio) without serum (LS411N).
(§3) Grouping and treatments started when the mean tumor volume reached about 220 mm^3 (with individual tumors in the range of 200-240 mm^3). Vehicle animals were treated daily with 10 mL/kg HP-β-CD p.o. (oral gavage). Encorafenib was prepared weekly in 0.5% carboxymethyl cellulose: 0.5% Tween 80:99% deionized water and dosed daily (QD) at the indicated doses orally (p.o.) (see Tables 4 and 5 for dosage amounts). ZN-c3 was prepared daily in 20% HP-B-CD and dosed daily at the indicated doses p.o. (see Tables 4 and 5 for dosage amounts). […] Body weight and tumor volume of all animals was measured twice weekly throughout the studies that were 21 or 22 days or 3 weeks in duration (for CDX models HT-29 and LS411N) or that were 28 days or 4 weeks in duration (for PDX models CRC769, CRC563 and CTG-1009). The measurement of tumor size was performed with a caliper and the tumor volume (mm3) was estimated using the formula: TV=a×b2/2 throughout the study, where “a” and “b” is long and short diameters of a tumor, respectively. Animals were euthanized when their individual tumor burden exceeded 2000 mm^3 or is in a continuing deteriorating condition or close to a comatose state.

Experiment [4] has as its system LS411N CDX model (BRAFmt CRC). The class given is in vivo, BALB/c nude mice. The following applies: ZN-c3 60 mg/kg QD p.o., encorafenib 20 mg/kg QD p.o., cetuximab 15 mg/kg BIW i.p.; for TGI: 21- or 22-day study. The protocol: as §2, §3
Experiment [5] deals with CRC769 PDX model (BRAFmt CRC). The experiment is classed as in vivo, female athymic nude Foxn1nu mice. The following applies: ZN-c3 60 mg/kg QD p.o., encorafenib 20 mg/kg QD p.o., cetuximab 20 mg/kg BIW i.p., 28-day study. The protocol:
(§4) PDX Models: Tumor fragments (CRC769, CRC563, CTG-1009) were brought out of cryopreservation and implanted into female athymic nude Foxn1nu mice. Fragments were allowed to grow then excised once an appropriate volume was reached. A tumor slurry was made of 50% freshly harvested tumors minced to small tumor fragments in PBS and 50% Matrigel. The tumor slurry was injected subcutaneously into 6-8 week old female athymic nude Foxn1nu mice on the flank.
as §3

In experiment [6] the test system is CTG-1009 PDX model (BRAFmt CRC). The experiment is classed as in vivo, female athymic nude Foxn1nu mice. The following applies: ZN-c3 60 mg/kg QD p.o., encorafenib 20 mg/kg QD p.o., cetuximab 15 mg/kg BIW i.p., 28-day study. Here is the method:
as §4, §3

The test system of experiment [7] is CRC563 PDX model (BRAFmt CRC). The class given is in vivo, female athymic nude Foxn1nu mice. The following applies: ZN-c3 60 mg/kg QD p.o., encorafenib 20 mg/kg QD p.o., cetuximab 20 mg/kg BIW i.p., 28-day study. The protocol: as §4, §3
For experiment [8], the target named is WEE1 (Homo sapiens, UniProt P30291). The following applies: as provided in WO 2019/173082; cited from earlier work.
Where [9] appears, read: HT-29 spheroids, 192 h, 250 nM ZN-c3, 1.6 nM encorafenib, relative to 0.1% DMSO.
[10] abbreviates: LS411N spheroids, 250 nM ZN-c3, 25 nM encorafenib, relative to 0.1% DMSO.

Sequence of WEE1 (P30291 whole entry, species assumed): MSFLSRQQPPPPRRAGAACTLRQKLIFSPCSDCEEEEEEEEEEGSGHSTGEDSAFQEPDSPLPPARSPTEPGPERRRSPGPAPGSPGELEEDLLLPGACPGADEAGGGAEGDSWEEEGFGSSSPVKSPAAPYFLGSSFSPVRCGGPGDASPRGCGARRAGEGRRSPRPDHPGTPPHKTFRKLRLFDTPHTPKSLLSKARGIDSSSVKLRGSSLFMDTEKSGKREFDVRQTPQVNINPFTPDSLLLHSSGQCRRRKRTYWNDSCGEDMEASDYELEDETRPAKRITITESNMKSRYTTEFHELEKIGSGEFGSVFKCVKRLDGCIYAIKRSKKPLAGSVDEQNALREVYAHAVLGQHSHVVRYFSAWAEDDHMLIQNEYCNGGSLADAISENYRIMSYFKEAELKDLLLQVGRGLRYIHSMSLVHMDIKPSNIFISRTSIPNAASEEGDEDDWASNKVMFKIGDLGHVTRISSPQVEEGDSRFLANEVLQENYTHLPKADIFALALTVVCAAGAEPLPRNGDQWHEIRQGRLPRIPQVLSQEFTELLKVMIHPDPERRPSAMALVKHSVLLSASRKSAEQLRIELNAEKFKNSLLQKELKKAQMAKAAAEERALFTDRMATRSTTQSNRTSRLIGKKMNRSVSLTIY

`COC(=O)N[C@@H](C)CNc1nccc(-c2cn(C(C)C)nc2-c2cc(Cl)cc(NS(C)(=O)=O)c2F)n1` [Encorafenib, encorafenib, reference compound] showed an inhibition at 0.01 µM in experiment [1] (HT-29, 192 h) of 75.8%. The compound further came in with an inhibition at 0.0016 µM in experiment [1] (setting [9]) of 39.5%. The compound further displayed an inhibition at 0.025 µM in experiment [2] (setting [10]) of 28.3%. In addition, the “Tumor Vol. Change from D 14-D 21 (%)” value in experiment [3] worked out at 36.9%; in experiment [4], 36.6%. Moreover, the TGI in experiment [3] was determined as 42.6; in experiment [4] it was 64.6; in experiment [5], 69.0; in experiment [6] it was 80.0.

`C=CCn1c(=O)c2cnc(Nc3ccc(N4CCN(C)CC4)cc3)nc2n1-c1ccc2c(n1)[C@@](O)(CC)CC2` [ZN-c3, (R)-2-allyl-1-(7-ethyl-7-hydroxy-6,7-dihydro-5H-cyclopenta[b]pyridin-2-yl)-6-((4-(4-methylpiperazin-1-yl)phenyl)amino)-1,2-dihydro-3H-pyrazolo[3,4-d]pyrimidin-3-one] returned an inhibition at 0.3 µM in experiment [1] (HT-29, 192 h) of 34.5%. The inhibition at 0.25 µM was 39% in experiment [1] (setting [9]) and 27.5% in experiment [2] (setting [10]). This compound came in with an inhibition at 0.35 µM in experiment [2] of 21.6%. Also, the “Tumor Vol. Change from D 14-D 21 (%)” value was determined as 36.3% in experiment [3] and 35.8% in experiment [4]. Further, the TGI was determined as 15.0 in experiment [3]; 69.0 in experiment [4]; 43.4 in experiment [7]; 19.0 in experiment [5]; 51.2 in experiment [6]. Also, the “activity against WEE1” value in experiment [8] is “active against WEE1”.

Broadly, the inhibition is the share of the control response that was lost under treatment.
